The source of these data is patent US12344644B2, “Amelioration and treatment of infarction damage with a polypeptide segement of BNIP3” (priority 2021, dated 2025).

Assay [1] relates to wild-type mice subjected to myocardial I/R. Put plainly: In vivo murine myocardial I/R: infarct size per area at risk (Evans blue/TTC). On the set-up: species or system mouse. To be noted: 30 min ischemia, 24 hours reperfusion.
For another assay, the system named is caspase-3. Put plainly: Caspase-3 activity in the AAR after I/R. The class given is in vivo, mouse. To be noted: 1 hour reperfusion.
The next assay has as its system BNIP3. Put plainly: Mitochondrial BNIP3 level in the AAR after I/R (immunoblot). The class given is in vivo, mouse. To be noted: 10 minutes reperfusion.
In another assay the target is T1, recombinant BNIP3 (Mus musculus, UniProt O55003).
T1 construct: purchased Cusabio (obtained via Hölzel Diagnostika, Cologne, Germany) CSB-CF002766Mo-50
T1 sequence (O55003 whole entry): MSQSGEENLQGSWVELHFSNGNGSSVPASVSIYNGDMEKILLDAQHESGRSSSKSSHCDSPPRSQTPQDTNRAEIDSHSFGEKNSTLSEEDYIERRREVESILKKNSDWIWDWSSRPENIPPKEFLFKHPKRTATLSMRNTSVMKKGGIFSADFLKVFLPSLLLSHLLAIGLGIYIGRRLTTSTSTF
Put plainly: BNIP3/peptide microarray (truncation, alanine scan, substitution analysis). The class given is binding. The note with it: alanine scan and substitution analyses of BNIP3 1-20.

Assay [2] concerns human cardiomyocytes (HCM). Put plainly: DOX induced mitochondrial ROS generation in human cardiomyocytes. The note with it: 10 μM DOX alone or with peptide co-administered; four and 22 hours.
Assay [3] concerns wild-type mice. Put plainly: DOX treatment in vivo: cardiac injury markers (cTnI, CK, LDH, BNP). On the set-up: species or system mouse. To be noted: DOX alone or with coadministration of PepB.
For another assay, the system named is autophagic flux. Put plainly: DOX treatment in vivo: autophagic flux (LC3, p62, BNIP3 western blot, chloroquine). The note with it: DOX alone or with PepB.
The subject of assay [4] is human cardiomyocytes (HCM). Put plainly: DOX induced mitochondrial calcium ion overload in human cardiomyocytes. The note with it: 10 μM DOX alone or with peptide co-administered; four hours.
Assay [5] concerns human cardiomyocytes (HCM). Put plainly: DOX induced mPTP opening in human cardiomyocytes (Calcein-AM). To be noted: 10 μM DOX alone or with peptide co-administered.
In assay [6] the test system is wild-type mice. Put plainly: DOX treatment in vivo: serial echocardiography. The note with it: DOX alone or in combination with PepB.
Description: Next, we explored the effect of DOX treatment on cardiac function assessed with echocardiographic measurements at three time points (TO, T1 16 days, T2 42 days) (FIG. 19).
Assay [7] has as its system human cardiomyocytes (HCM). Put plainly: DOX induced mitochondrial membrane potential destabilization in human cardiomyocytes. To be noted: 10 μM DOX alone or with peptide co-administered; four and 22 hours.
The subject of a further assay is mitochondria. Put plainly: DOX treatment in vivo: mitochondrial OCR (Seahorse mitochondrial stress test).

As to “GRKKRRQRRRPQLDAQHESGRSSSKSSHCDSP [TATBNIP3-20C, control peptide: HIV-1 PTD and 20 amino acids derived from BNIP3 42-61]”, in [1] (injected 5 minutes before reperfusion), the “infarct size compared with vehicle treatment” value is reported as “no difference”.
In the case of “GRKKRRQRRRPQMSQSGEENLQGSWVELHFSN [TAT-BNIP3-20A, HIV-1 PTD and 20 amino acids derived from BNIP3 1-20]”, the caspase-3 activity result in the assay with caspase-3 is “markedly reduced caspase-3 activity”. In addition, the “reduction in infarct size relative to treatment with vehicle” value in assay [1] (peptide injected 5 minutes before reperfusion) is 41%. Moreover, the “BNIP3 translocation to the mitochondria” value with BNIP3 is reported as “prevented BNIP3 translocation”.
On to VELHFSN, for which the “BNIP3 binding (microarray signal)” value with recombinant BNIP3 was “substantially higher luminescence”.
Regarding `COc1cccc2c1C(=O)c1c(O)c3c(c(O)c1C2=O)C[C@@](O)(C(=O)CO)C[C@@H]3O[C@H]1C[C@H](N)[C@H](O)[C@H](C)O1` [DOX, doxorubicin], the “mitochondrial ROS generation” value in assay [2] is “triggered”. Also, the “cardiomyocyte death, cardiac troponin I (cTnl) levels” value in the assay on wild-type mice [3] is listed as “high cardiac troponin I (cTnl) levels”. Moreover, in the assay on autophagic flux, the BNIP3 accumulation result was “triggered p62 and BNIP3 accumulation”; the p62 accumulation entry is “triggered p62 and BNIP3 accumulation”. Further, the “mitochondrial calcium ion overload” value in [4] was “induced”. Also, in assay [5], the mPTP opening entry is listed as “activated”. Further, the heart rate entry with wild-type mice [6] is given as “unaffected”. Moreover, in assay [7], the mitochondrial membrane potential entry is reported as “disrupted”. Also, in the assay on mitochondria (DOX alone or with PepB), the basal respiration entry was “affected”, the maximal respiration entry is listed as “affected” and the “respiratory reserve capacity (OCR)” value is listed as “inhibited”. For the same molecule, the “Complex II-stimulated respiration” value with mitochondria (DOX alone or with PepB co-treatment) was “inhibition”.
